Starred links: 1 amine or outer side, 2 acyl side, 3 side chain; linkers in the order of their positions; H or OH if unused. Residues, ends and D or L forms follow the SMILES beside them. *: point of attachment. S(CH2)2OCO2(CPT-20-yl) = CC[C@@]1(OC(=O)OCCS*)C(=O)OCc2c1cc1n(c2=O)Cc2cc3ccccc3nc2-1; Pteroyl = Nc1nc2ncc(CNc3ccc(C(=O)*)cc3)nc2c(=O)[nH]1; γGlu = O=C(O)[C@H](CCC(=O)[*:2])N[*:1]
Assays:
KB = assay: Antiproliferative activity against human KB cells expressing FR in presence of folic acid after 72 hrs by [3H]thymidine incorporation assay; assay type: functional, cell-based
[1] = biological target: Folate receptor alpha (Homo sapiens) (UniProt P15328); assay: Displacement of [3H]folic acid from human folate receptor expressed in KB cells relative to folic acid; assay type: cell-based
Sequence of Folate receptor alpha (Homo sapiens) (P15328 25-234 limits assumed): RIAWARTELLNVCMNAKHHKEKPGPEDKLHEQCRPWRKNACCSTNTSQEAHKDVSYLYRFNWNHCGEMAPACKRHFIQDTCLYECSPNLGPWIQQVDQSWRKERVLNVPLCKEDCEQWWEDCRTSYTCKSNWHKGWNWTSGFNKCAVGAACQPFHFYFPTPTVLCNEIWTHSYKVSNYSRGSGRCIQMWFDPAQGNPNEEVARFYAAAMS

- IC50 (KB): 0.01 µM
- relative binding affinity (RBA) [1]: 0.44
SMILES: CC[C@@]1(OC(=O)OCCSSC[C@H](NC(=O)[C@H](CC(=O)O)NC(=O)[C@H](CC(=O)O)NC(=O)[C@H](CCCNC(=N)N)NC(=O)[C@H](CC(=O)O)NC(=O)CC[C@H](NC(=O)c2ccc(NCc3cnc4nc(N)[nH]c(=O)c4n3)cc2)C(=O)O)C(=O)O)C(=O)OCc2c1cc1n(c2=O)Cc2cc3ccccc3nc2-1 ({Pteroyl-γGlu}-DRDDC(S(CH2)2OCO2(CPT-20-yl))-OH)

From ChEMBL document CHEMBL1137292, “Synthesis and activity of a folate peptide camptothecin prodrug” (Bioorg Med Chem Lett, 2006)
